Measured values published in PMC8406809 (Antimicrobial Agents and Chemotherapy, 2021).

Legend:
Huh7.5 cells = assay type: cell-based, human; conditions: higher concentrations marked # in Fig. 4A
[1] = test system: original-SARS2 (P2VeroE6 virus, SARS-CoV-2_DK-AHH1); assay: microbe, parasite or virus in culture; assay type: cell-based

Row | Structure (SMILES) | cytotoxicity (Huh7.5 cells) | fold-higher activity in Huh7.5 cells than in Vero E6 cells [1] [fold] | EC50 ([1]; Severe acute respiratory syndrome coronavirus 2, Huh7.5) [µM]
1 | COc1c(NC(=O)C(=O)c2ccc(OCCN3CCOCC3)c3ccccc23)cc(C(C)(C)C)cc1NS(C)(=O)=O [ITX5061] | cytotoxic | – | –
2 | CCC(CC)COC(=O)[C@H](C)N[P@](=O)(OC[C@H]1O[C@@](C#N)(c2ccc3c(N)ncnn23)[C@H](O)[C@@H]1O)Oc1ccccc1 [Remdesivir] | – | ~50 | 0.03
